Patent publication US5202315A, “Cephalosporin compounds” (Lucky, Ltd., priority 1989, dated 1993)
≈ marks a conversion by molar mass, not a printed value.

Legend:
[1] = tested on: Acinetobacter calcoaceticus ATCC 15473; experiment: Antibacterial activity, MIC; type: cell-based; conditions: ATCC15473, 20 h
In short: (§1)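 Agar two-fold dilution method: compound serially diluted two-fold in Mueller-Hinton agar, spotted with 2 μl of a 10^7 CFU/ml inoculum of each standard strain, then incubated at 37 °C for 20 h.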

[2] = tested on: Bacillus cereus ATCC 11778; experiment: Antibacterial activity, MIC; type: cell-based; conditions: ATCC11778, 20 h
In short: as §1

[3] = tested on: Bacillus megaterium ATCC 9885; experiment: Antibacterial activity, MIC; type: cell-based; conditions: Priestia megaterium, ATCC9885, 20 h
In short: as §1

[4] = tested on: Citrobacter freundii ATCC 8090; experiment: Antibacterial activity, MIC; type: cell-based; conditions: ATCC8090, 20 h
In short: as §1

[5] = tested on: Enterobacter aerogenes ATCC 29751; experiment: Antibacterial activity, MIC; type: cell-based; conditions: Klebsiella aerogenes, ATCC29751, 20 h
In short: as §1

[6] = tested on: Enterobacter cloacae ATCC 27508; experiment: Antibacterial activity, MIC; type: cell-based; conditions: ATCC27508, 20 h
In short: as §1

[7] = tested on: Escherichia coli ATCC 10536; experiment: Antibacterial activity, MIC; type: cell-based; conditions: ATCC10536, agar two-fold dilution, 37° C., 20 hours
In short: as §1

[8] = tested on: Escherichia coli ATCC 25922; experiment: Antibacterial activity, MIC; type: cell-based; conditions: ATCC25922, agar two-fold dilution, 37° C., 20 hours
In short: as §1

[9] = tested on: Klebsiella pneumoniae ATCC 10031; experiment: Antibacterial activity, MIC; type: cell-based; conditions: ATCC10031, 20 h
In short: as §1

[10] = tested on: Micrococcus luteus ATCC 9341; experiment: Antibacterial activity, MIC; type: cell-based; conditions: ATCC9341, 20 h
In short: as §1

[11] = tested on: Morganella morganii ATCC 8076h; experiment: Antibacterial activity, MIC; type: cell-based; conditions: ATCC8076H, agar two-fold dilution, 37° C., 20 hours
In short: as §1

[12] = tested on: Proteus mirabilis ATCC 25933; experiment: Antibacterial activity, MIC; type: cell-based; conditions: ATCC25933, 20 h
In short: as §1

[13] = tested on: Proteus vulgaris ATCC 6059; experiment: Antibacterial activity, MIC; type: cell-based; conditions: ATCC6059, 20 h
In short: as §1

[14] = tested on: Providencia rettgeri ATCC 9250; experiment: Antibacterial activity, MIC; type: cell-based; conditions: ATCC9250, agar two-fold dilution, 37° C., 20 hours
In short: as §1

[15] = tested on: Pseudomonas aeruginosa ATCC 10145; experiment: Antibacterial activity, MIC; type: cell-based; conditions: ATCC10145, 20 h
In short: as §1

[16] = tested on: Pseudomonas aeruginosa ATCC 25619; experiment: Antibacterial activity, MIC; type: cell-based; conditions: ATCC25619, 20 h
In short: as §1

[17] = tested on: Pseudomonas aeruginosa ATCC 27853; experiment: Antibacterial activity, MIC; type: cell-based; conditions: ATCC27853, 20 h
In short: as §1

[18] = tested on: Salmonella typhimurium ATCC 14028; experiment: Antibacterial activity, MIC; type: cell-based; conditions: Salmonella enterica, 20 h
In short: as §1

[19] = tested on: Serratia marcescens ATCC 27117; experiment: Antibacterial activity, MIC; type: cell-based; conditions: ATCC27117, 20 h
In short: as §1

[20] = tested on: Shigella flexneri ATCC 11836; experiment: Antibacterial activity, MIC; type: cell-based; conditions: ATCC11836, agar two-fold dilution, 37° C., 20 hours
In short: as §1

[21] = tested on: Shigella sonnei ATCC 11060; experiment: Antibacterial activity, MIC; type: cell-based; conditions: ATCC11060, ATCC 11060, agar two-fold dilution, 37° C., 20 hours, read-out: MIC
In short: as §1

[22] = tested on: Staphylococcus aureus ATCC 10537; experiment: Antibacterial activity, MIC; type: cell-based; conditions: ATCC10537, 20 h
In short: as §1

[23] = tested on: Staphylococcus aureus ATCC 6538p; experiment: Antibacterial activity, MIC; type: cell-based; conditions: ATCC6538P, 20 h
In short: as §1

[24] = tested on: Staphylococcus epidermidis ATCC 12228; experiment: Antibacterial activity, MIC; type: cell-based; conditions: ATCC12228, 20 h
In short: as §1

[25] = tested on: Streptococcus faecalis ATCC 29212; experiment: Antibacterial activity, MIC; type: cell-based; conditions: Enterococcus faecalis, ATCC29212, 20 h
In short: as §1

[26] = tested on: Escherichia coli; experiment: Antibacterial activity against clinically isolated strains, MIC; type: cell-based
[27] = tested on: Klebsiella pneumoniae; experiment: as above; type: cell-based
[28] = tested on: Staphylococcus aureus methicillin susceptible; experiment: as above; type: cell-based
[29] = tested on: Staphylococcus aureus methicillin resistant; experiment: as above; type: cell-based
[30] = tested on: Pseudomonas aeruginosa; experiment: as above; type: cell-based
[31] = In-vivo absorbency (plasma concentrations & pharmacokinetic parameters); design: species or system SD rat (male); conditions: rat, in vivo, iv, 20 mg/kg
Text: The blood samples from the femoral vein of the rats were taken every hour after administration, and analyzed by bio-assay(agar well method).
Tested animal: SD male Rat (220~340 g)

[32] = as above; design: species or system SD rat (male); conditions: rat, in vivo, iv, 20 mg/kg; remark: listed apart in the source

CC(C)(O/N=C(\C(=O)N[C@@H]1C(=O)N2C(C(=O)[O-])=C(C[n+]3ccccc3)CS[C@H]12)c1csc(N)n1)C(=O)O [Ceftazidime, reference compound]
MIC [1]: 4 µg/mL (≈ 7.32 µM) | MIC [2]: 128 µg/mL (≈ 234 µM) | MIC [3]: 0.25 µg/mL (≈ 0.457 µM) | MIC [4]: 0.25 µg/mL (≈ 0.457 µM) | MIC [5]: 8 µg/mL (≈ 14.6 µM) | MIC [6]: 0.063 µg/mL (≈ 0.115 µM) | MIC [7]: 0.13 µg/mL (≈ 0.238 µM) | MIC [8]: 0.13 µg/mL (≈ 0.238 µM) | MIC [9]: 0.13 µg/mL (≈ 0.238 µM) | MIC [10]: 1 µg/mL (≈ 1.83 µM) | MIC [11]: 0.016 µg/mL (≈ 0.0293 µM) | MIC [12]: 0.063 µg/mL (≈ 0.115 µM) | MIC [13]: 0.063 µg/mL (≈ 0.115 µM) | MIC [14]: ≤ 0.008 µg/mL | MIC [15]: 2 µg/mL (≈ 3.66 µM) | MIC [16]: 1 µg/mL (≈ 1.83 µM) | MIC [17]: 1 µg/mL (≈ 1.83 µM) | MIC [18]: 0.25 µg/mL (≈ 0.457 µM) | MIC [19]: 0.13 µg/mL (≈ 0.238 µM) | MIC [20]: 0.063 µg/mL (≈ 0.115 µM) | MIC [21]: 0.13 µg/mL (≈ 0.238 µM) | MIC [22]: 8 µg/mL (≈ 14.6 µM) | MIC [23]: 16 µg/mL (≈ 29.3 µM) | MIC [24]: 8 µg/mL (≈ 14.6 µM) | MIC [25]: > 128 µg/mL | MIC50 [26]: 0.13 µg/mL (≈ 0.238 µM) | MIC90 ([26]; 38 clinical isolates, broth microdilution test): 0.13 µg/mL (≈ 0.238 µM) | MIC50 [27]: 0.063 µg/mL (≈ 0.115 µM) | MIC90 [27]: 0.5 µg/mL (≈ 0.915 µM) | MIC50 [28]: 8 µg/mL (≈ 14.6 µM) | MIC90 [28]: 8 µg/mL (≈ 14.6 µM) | MIC50 [29]: 128 µg/mL (≈ 234 µM) | MIC90 [29]: > 128 µg/mL | MIC50 [30]: 4 µg/mL (≈ 7.32 µM) | MIC90 [30]: 16 µg/mL (≈ 29.3 µM) | concentration at 1 h [31]: 4700 ng/mL | concentration at 2 h [31]: 1600 ng/mL | AUC [32]: 31100 ng·h/mL | concentration at 1 min [32]: 135000 ng/mL | concentration at 2.5 min [32]: 94000 ng/mL | concentration at 5 min [32]: 71000 ng/mL | concentration at 10 min [32]: 53000 ng/mL | concentration at 20 min [32]: 26000 ng/mL | concentration at 40 min [32]: 10000 ng/mL
